In ChEMBL document CHEMBL1201862, “PubChem BioAssay data set” (2004):
Values belong to the molecule of their own block, whether it stands above or below them. Calls of active or inactive are those of the source.

Assays:
[1] = target: T1, Microphthalmia-associated transcription factor (Homo sapiens, UniProt O75030); assay: TRPM1 promoter luciferase signal decrease, dose response, MITF inhibitor project, cell-based, SK-MEL-5, cherry-picked, set 3 (AID 493073); type: functional
T1 sequence (O75030 whole entry): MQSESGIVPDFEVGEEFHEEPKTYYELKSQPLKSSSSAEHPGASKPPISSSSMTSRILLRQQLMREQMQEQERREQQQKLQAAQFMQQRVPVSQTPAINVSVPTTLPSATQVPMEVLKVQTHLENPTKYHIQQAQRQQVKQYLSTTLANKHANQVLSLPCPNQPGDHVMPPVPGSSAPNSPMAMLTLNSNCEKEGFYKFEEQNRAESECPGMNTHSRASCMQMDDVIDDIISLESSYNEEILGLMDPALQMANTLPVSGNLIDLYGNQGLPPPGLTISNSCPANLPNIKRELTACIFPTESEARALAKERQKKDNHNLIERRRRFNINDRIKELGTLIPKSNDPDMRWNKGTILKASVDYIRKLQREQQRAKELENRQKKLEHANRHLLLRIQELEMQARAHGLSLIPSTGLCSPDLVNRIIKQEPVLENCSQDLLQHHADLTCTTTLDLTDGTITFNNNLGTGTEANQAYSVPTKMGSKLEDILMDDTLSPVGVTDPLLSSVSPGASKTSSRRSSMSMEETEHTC

Aspartyl aminopeptidase = Aspartyl aminopeptidase (Plasmodium falciparum 3D7, UniProt Q8I2J3)
[2] = target: T2, Rac GTPase-activating protein 1 (Homo sapiens, UniProt Q9H0H5); assay: MgcRacGAP GTPase-activating activity inhibitors, confirmation, biochemical, ADP Hunter fluorescence, primary and confirmatory (AID 624330); type: functional
T2 sequence (Q9H0H5 whole entry): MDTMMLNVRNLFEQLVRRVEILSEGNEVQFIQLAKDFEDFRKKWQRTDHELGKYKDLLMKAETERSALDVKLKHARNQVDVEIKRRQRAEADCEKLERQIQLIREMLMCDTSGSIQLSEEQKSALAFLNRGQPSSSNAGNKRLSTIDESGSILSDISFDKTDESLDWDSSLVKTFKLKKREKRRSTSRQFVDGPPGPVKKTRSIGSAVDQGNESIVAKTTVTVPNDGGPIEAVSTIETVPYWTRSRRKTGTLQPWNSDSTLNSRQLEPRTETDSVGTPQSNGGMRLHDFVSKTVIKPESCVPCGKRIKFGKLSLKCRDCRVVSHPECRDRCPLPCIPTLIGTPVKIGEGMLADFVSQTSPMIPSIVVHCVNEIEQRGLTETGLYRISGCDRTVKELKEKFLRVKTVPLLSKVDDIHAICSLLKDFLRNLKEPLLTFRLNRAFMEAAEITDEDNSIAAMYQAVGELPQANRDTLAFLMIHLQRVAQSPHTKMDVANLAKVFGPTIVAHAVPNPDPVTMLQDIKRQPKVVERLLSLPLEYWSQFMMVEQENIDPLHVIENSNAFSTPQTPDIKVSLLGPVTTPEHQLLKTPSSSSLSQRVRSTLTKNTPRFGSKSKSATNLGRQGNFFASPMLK

[3] = target: Dual specificity tyrosine-phosphorylation-regulated kinase 1A (Rattus norvegicus, UniProt Q63470); type: biochemical, Homo sapiens
[4] = target: T3, Orexin/Hypocretin receptor type 1 (Homo sapiens, UniProt O43613); assay: Homogeneous Time Resolved Fluorescence (HTRF)-based cell-based high throughput dose response assay for antagonists of the orexin 1 receptor (OX1R; HCRTR1). [Related pubchem assays (depositor defined):AID434989, AID435008, AID463079, AID485270, AID492963, AID492964, AID492965, AID493232, AID504717, AID504718]; type: functional;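 also: antagonism measured against Orexin-A challenge at about its EC80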
T3 sequence (O43613 whole entry): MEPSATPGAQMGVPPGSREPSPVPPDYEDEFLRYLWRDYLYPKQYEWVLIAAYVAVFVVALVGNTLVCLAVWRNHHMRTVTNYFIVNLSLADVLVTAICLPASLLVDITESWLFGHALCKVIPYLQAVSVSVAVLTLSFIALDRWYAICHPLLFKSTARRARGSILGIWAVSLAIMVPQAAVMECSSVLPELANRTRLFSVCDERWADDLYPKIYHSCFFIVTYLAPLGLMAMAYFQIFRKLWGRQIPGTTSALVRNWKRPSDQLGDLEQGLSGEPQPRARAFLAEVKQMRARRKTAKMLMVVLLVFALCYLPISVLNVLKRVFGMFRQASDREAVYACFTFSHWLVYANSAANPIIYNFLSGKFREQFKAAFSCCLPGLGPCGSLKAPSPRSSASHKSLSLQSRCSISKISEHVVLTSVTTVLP

Orexin receptor type 2 = target: T4, Orexin receptor type 2 (Homo sapiens, UniProt O43614); assay: Counterscreen assay for antagonists of the orexin 1 receptor (OX1R; HCRTR1): Homogeneous Time Resolved Fluorescence (HTRF)-based cell-based dose response assay for antagonists of the orexin 2 receptor (OX2R; HCRTR2), run by assay provider.; type: functional
T4 sequence (O43614 whole entry): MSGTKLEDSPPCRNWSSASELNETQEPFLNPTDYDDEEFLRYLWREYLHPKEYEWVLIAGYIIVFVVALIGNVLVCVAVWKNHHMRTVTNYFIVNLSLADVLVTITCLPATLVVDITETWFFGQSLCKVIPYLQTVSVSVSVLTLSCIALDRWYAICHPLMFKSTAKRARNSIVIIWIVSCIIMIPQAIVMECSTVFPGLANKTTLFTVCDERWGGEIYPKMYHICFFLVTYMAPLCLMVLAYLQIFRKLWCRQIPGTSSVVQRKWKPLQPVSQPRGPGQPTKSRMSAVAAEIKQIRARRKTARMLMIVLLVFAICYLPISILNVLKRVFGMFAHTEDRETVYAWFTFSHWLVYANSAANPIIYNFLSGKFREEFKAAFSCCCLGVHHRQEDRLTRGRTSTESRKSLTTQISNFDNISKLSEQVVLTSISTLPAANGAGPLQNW

[5] = target: RAC-alpha serine/threonine-protein kinase (Homo sapiens, UniProt P31749); type: functional;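 also: AKT1 affinity measured as one member of a kinome-wide kinase profiling panel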
[6] = target: Homeodomain-interacting protein kinase 2 (Homo sapiens, UniProt Q9H2X6); type: functional;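 also: measured within a kinome-wide kinase profiling panel, HIPK2 being one panel member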
[7] = target: Tyrosine-protein kinase FRK (Homo sapiens, UniProt P42685); type: functional;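 also: FRK tested as one member of a kinome panel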
[8] = target: Serine/threonine-protein kinase pim-1 (Homo sapiens, UniProt P11309); type: functional
[9] = target: 5'-AMP-activated protein kinase catalytic subunit alpha-1 (Homo sapiens, UniProt Q13131); type: functional
[10] = target: Receptor tyrosine-protein kinase erbB-4 (Homo sapiens, UniProt Q15303); type: functional;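 also: ERBB4 member of a kinome-wide kinase profiling panel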
[11] = target: Serine/threonine-protein kinase pim-2 (Homo sapiens, UniProt Q9P1W9); type: functional;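 also: value comes from a broad kinase panel profiling study in which PIM2 was one of the panel members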
[12] = target: Dual specificity tyrosine-phosphorylation-regulated kinase 1B (Homo sapiens, UniProt Q9Y463); assay: Navigating the Kinome. Panel member name: DYRK1B; type: functional
Dual specificity tyrosine-phosphorylation-regulated kinase 1B, sequence (Q9Y463 whole entry): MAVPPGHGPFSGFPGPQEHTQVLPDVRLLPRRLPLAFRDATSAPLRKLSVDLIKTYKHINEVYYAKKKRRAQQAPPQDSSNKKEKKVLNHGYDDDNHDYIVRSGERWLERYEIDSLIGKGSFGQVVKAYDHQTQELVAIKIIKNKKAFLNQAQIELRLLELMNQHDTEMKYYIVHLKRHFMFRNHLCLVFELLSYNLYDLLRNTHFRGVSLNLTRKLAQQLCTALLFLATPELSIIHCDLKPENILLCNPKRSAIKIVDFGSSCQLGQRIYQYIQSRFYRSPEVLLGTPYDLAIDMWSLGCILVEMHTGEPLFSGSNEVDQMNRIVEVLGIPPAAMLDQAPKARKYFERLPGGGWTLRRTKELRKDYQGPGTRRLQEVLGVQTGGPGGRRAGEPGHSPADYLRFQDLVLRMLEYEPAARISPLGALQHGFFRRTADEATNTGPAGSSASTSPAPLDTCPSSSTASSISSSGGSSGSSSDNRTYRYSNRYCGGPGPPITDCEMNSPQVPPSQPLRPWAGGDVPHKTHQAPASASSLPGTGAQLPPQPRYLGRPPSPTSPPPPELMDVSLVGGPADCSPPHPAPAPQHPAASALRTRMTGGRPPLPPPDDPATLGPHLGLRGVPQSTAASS

Aspartyl aminopeptidase, sequence (Q8I2J3 whole entry): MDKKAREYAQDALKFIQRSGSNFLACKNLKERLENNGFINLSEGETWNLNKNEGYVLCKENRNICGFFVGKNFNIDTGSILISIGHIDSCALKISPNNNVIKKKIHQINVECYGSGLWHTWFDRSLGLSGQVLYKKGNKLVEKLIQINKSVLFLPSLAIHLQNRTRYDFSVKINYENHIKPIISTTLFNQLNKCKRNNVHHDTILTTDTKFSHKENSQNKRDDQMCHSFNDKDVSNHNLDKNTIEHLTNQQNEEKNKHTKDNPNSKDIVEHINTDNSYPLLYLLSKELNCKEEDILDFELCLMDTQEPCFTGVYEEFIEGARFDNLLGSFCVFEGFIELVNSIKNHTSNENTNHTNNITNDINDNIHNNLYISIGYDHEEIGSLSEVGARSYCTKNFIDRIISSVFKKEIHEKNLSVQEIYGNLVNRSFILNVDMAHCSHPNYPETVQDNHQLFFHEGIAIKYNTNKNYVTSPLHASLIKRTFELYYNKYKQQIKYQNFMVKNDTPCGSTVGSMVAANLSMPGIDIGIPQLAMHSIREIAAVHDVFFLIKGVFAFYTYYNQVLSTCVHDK
Serine/threonine-protein kinase pim-2, sequence (Q9P1W9 whole entry): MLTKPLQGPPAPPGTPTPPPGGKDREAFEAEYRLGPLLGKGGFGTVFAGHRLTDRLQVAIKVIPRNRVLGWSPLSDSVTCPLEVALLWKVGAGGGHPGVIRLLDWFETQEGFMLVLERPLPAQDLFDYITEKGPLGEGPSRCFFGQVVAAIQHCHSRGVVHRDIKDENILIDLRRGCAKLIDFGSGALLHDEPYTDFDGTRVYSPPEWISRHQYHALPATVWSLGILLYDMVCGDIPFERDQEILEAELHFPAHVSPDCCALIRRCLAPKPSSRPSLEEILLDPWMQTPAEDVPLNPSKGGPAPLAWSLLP
5'-AMP-activated protein kinase catalytic subunit alpha-1, sequence (Q13131 whole entry): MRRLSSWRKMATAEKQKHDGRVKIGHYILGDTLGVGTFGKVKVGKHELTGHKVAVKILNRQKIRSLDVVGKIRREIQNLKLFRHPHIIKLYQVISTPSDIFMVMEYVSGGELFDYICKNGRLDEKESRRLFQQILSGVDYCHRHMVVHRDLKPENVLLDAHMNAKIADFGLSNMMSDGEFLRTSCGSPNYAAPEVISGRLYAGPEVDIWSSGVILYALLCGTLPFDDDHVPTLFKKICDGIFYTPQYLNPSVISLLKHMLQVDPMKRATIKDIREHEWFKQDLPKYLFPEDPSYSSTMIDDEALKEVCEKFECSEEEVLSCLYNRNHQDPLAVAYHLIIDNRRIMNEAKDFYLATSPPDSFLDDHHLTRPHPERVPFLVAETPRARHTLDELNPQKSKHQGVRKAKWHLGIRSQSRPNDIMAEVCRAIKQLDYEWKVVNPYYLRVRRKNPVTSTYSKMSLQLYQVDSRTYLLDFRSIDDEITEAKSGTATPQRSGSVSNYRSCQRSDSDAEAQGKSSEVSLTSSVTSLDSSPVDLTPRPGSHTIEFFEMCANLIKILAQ
Homeodomain-interacting protein kinase 2, sequence (Q9H2X6 whole entry): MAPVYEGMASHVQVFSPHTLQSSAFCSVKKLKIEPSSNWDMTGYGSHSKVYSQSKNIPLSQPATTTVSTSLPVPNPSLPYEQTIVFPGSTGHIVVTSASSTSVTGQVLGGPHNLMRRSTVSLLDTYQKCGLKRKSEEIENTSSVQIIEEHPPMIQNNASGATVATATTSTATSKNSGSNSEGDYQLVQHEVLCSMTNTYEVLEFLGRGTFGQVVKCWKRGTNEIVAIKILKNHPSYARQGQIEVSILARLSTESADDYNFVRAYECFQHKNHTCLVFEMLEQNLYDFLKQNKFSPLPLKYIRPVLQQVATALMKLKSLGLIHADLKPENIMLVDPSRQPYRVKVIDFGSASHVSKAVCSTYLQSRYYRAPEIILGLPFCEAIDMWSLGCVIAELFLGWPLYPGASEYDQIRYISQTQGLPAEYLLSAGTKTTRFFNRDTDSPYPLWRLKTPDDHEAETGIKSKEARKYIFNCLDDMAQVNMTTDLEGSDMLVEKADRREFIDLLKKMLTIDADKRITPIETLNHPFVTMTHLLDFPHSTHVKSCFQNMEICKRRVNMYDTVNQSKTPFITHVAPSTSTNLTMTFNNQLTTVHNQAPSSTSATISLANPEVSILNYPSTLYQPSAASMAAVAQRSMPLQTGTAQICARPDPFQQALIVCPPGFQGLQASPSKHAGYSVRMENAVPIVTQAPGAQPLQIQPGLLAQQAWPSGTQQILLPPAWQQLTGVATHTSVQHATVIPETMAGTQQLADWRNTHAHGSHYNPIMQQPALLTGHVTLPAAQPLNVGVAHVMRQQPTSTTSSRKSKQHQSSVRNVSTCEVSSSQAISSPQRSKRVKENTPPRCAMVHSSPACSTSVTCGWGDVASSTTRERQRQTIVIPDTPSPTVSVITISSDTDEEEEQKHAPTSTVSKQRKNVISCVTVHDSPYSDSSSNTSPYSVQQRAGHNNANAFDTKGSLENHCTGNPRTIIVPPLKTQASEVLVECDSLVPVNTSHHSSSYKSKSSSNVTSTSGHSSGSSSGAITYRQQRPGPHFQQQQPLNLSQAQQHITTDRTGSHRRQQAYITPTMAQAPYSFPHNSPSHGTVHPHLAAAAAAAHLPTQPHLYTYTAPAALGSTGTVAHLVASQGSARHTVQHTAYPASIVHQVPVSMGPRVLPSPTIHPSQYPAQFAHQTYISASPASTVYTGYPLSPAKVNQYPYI
Serine/threonine-protein kinase pim-1, sequence (P11309 whole entry): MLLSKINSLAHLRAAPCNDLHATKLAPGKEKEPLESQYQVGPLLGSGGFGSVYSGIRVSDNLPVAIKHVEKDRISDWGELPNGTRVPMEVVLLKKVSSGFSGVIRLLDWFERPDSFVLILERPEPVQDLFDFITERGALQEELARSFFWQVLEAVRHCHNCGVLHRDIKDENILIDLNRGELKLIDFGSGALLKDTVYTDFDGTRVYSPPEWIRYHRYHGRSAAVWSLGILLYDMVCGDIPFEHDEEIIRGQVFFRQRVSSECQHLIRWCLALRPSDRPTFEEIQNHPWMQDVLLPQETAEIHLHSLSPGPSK
Tyrosine-protein kinase FRK, sequence (P42685 whole entry): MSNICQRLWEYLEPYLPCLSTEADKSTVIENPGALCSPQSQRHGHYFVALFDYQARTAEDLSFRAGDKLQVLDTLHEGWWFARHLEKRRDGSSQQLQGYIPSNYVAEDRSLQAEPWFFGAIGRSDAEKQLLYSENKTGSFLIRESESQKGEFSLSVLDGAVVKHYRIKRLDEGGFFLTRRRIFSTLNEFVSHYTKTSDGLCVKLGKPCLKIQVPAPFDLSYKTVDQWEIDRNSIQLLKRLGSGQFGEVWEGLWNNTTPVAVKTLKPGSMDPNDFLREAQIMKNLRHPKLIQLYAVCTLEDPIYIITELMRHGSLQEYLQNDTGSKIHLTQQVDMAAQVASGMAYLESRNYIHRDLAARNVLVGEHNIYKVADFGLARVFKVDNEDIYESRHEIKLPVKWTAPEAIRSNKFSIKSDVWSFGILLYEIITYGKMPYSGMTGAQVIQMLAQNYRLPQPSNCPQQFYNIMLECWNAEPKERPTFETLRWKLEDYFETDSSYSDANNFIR
RAC-alpha serine/threonine-protein kinase, sequence (P31749 whole entry): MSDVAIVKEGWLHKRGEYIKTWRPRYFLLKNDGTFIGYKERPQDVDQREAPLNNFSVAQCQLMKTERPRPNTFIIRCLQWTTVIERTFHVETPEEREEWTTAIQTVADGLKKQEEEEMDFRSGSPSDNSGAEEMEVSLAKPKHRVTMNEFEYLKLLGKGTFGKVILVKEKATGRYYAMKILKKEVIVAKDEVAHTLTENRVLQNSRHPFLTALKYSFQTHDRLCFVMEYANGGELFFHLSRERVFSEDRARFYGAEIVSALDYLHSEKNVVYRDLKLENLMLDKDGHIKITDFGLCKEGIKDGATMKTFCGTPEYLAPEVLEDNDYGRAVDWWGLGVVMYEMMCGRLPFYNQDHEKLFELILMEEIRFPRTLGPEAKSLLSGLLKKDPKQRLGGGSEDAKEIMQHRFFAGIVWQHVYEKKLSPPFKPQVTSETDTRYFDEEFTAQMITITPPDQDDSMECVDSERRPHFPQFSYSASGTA

Compound: C=CCNC1=C(Cl)C(=O)c2ccccc2C1=O
- AC50 [1]: 4.06 µM (active)

Compound: CS(=O)(=O)c1ccc2c(c1)SC1=NC(=O)/C(=C/c3ccc(O)c(O)c3)C(=N)N12
- IC50 (Aspartyl aminopeptidase): 2.16 µM (active)
- IC50 [2]: 38.1 µM (active)
- AC50 [3]: 2.71 µM (active)

Compound: CN(C)c1ccc(-c2nnc(-c3cccs3)o2)cc1
- IC50 [4]: 3.58 µM (active)
- IC50 (Orexin receptor type 2): > 50 µM (inactive)

- Ki [5]: 6.31 µM (active)
- Ki [6]: 0.0251 µM (active)
- Ki [7]: 0.0794 µM (active)
- Ki [8]: > 5.01 µM (inactive)
- Ki [9]: 0.0631 µM (active)
- Ki [10]: > 3.98 µM (inactive)
- Ki [11]: > 2.51 µM (inactive)
- Ki [12]: 0.0158 µM (active)
Compound: COc1ccc(C(=O)Nc2n[nH]c3ccc(-c4cn(Cc5ccccc5)nn4)cc23)cc1OC
